Molecular target: T1, 145138 (Aurantiochytrium limacinum, UniProt A0A3S5XF47)
T1 construct: 6x His-tagged full-length ORF overexpressed in A. limacinum; secreted form purified from medium on Ni-Sepharose; cleaved between L159 and A160; N-terminus ALSSS; 30 kDa on SDS-PAGE
Assay: inhibition of TF-TG hydrolysis ([…],3-TF-DG release), TLC fluorescence scan
Type: biochemical
Conditions: competitive; substrate TF-TG

T1 sequence (A0A3S5XF47 160-420): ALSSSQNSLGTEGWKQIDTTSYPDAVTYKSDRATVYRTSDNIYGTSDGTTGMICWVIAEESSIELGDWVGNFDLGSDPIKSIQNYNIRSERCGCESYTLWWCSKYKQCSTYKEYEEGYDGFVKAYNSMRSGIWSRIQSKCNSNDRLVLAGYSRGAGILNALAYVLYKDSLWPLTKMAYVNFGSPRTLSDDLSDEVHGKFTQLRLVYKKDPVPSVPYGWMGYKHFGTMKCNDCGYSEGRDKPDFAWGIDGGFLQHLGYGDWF

SMILES: CCCCCCCCCCCCCCCCCC(=O)O[C@H](CO)COP(=O)([O-])OCC[N+](C)(C)C [2-acyl LPC]
- inhibition of TF-TG hydrolysis (1,3-TF-DG release), TLC fluorescence scan: 2-acyl LPC competitively inhibited the release of fatty acyl chain at sn-2 of TG

Reference: paper PMC6841712 (Scientific Reports, 2019)
